Here are results for 16 compounds from patent US6171786A, “Methods for preventing multidrug resistance in cancer cells” (priority 1996, dated 2001).

Entries after “also recorded” stand apart in the source; their conditions may differ. Read-outs that look alike come from different tables or passages of the source.

Series [1] relates to MDR1 expression. The experiment in a line: Inhibition of cytotoxic drug-induced MDR1 expression by protein kinase inhibitors (cDNA-PCR). The following applies: for inhibition of MDR1 induction by cytotoxic drugs: concentration not stated. On the procedure:
Cells were plated in 6-well Falcon tissue culture plates at 3,300 cells per well, and incubated in the appropriate concentrations of drugs. Each of the protein kinase inhibitors to be tested were added at the appropriate final concentration 45 minutes prior to MDR1 induction by the addition of Ara-C or TPA, with the exception of herbimycin A, which was added 12 hours prior to Ara-C or TPA, and tyrphostins A25 and B46, which were each added 16 hours prior to MDR1 induction by the addition of Ara-C or TPA. Cells were incubated overnight (TPA) or for 10 hours (Ara-C) at 37° C./ 5% CO2 after the addition of the MDR1 inducing agents before harvesting for cDNA-PCR analysis.
In addition, the analysis of certain drugs imposed added requirements. For experiments using calphostin C, cells were incubated under direct white light illumination. For experiments using D,L-threo-sphingosine, the cell culture medium was pre-treated with the appropriate concentration of the drug for one hour at 37° C. with continuous gentle mixing. After this pretreatment, cells were resuspended in media supplemented with drug and incubated for 45 minutes as described above.
To further evaluate the capacity of protein kinase inhibitors to suppress MDR1 induction by cytotoxic drugs and PKC agonists, H-9 human T-cell leukemia cells were used in cDNA-PCR assays to examine induced MDR1 mRNA expression levels in the presence of protein kinase inhibitors.

In series [2] the test system is MDR1 expression (P-glycoprotein). Put plainly: Induction of MDR1 expression by cytotoxic drugs (dye efflux, UIC2, cDNA-PCR). The series is classed as cell-based, human. As to the method:
(§1) (Commercially-available kits (for example, from GIBCO/BRL, Gaithersburg, Md.) can be advantageously modified for making cDNA using random hexamers.) PCR is then performed using the following primers: […]
(§2) (where β2 M represents β2 microglobulin). PCR was performed for β2 M experiments under a regime consisting of 1 cycle comprising denaturation at 94° C. for 3 minutes, primer annealing at 60° C. for 30 seconds, and primer extension at 72° C. for 1 minute, followed by 19 cycles comprising denaturation at 94° C. for 30 seconds, primer annealing at 60° C. for 30 seconds, and primer extension at 72° C. for 1 minute, followed by a final cycle comprising denaturation at 94° C. for 30 seconds, primer annealing at 60° C. for 30 seconds, and primer extension at 72° C. for 5 minutes. MDR1 cDNA sequences were amplified using the identical protocol as for β2 M, but extending the amplification from 19 cycles to 25 cycles. In addition, the cDNA-PCR amplification protocol contained the following modifications: (i) Taq DNA polymerase was added to the PCR mixtures after initial heating of the samples to 94° C. (ii) The yield of the β2 -microglobulin-specific band, obtained after 22-28 cycles of PCR, was used as the primary criterion for equalizing the starting amounts of the cDNA templates in different preparations, in order to account for differential RNA degradation in cells subjected to different types of treatment. ^32 P-labeled PCR products were detected by autoradiography.
In particular PKC is activated by treatment with Ara-C. Therefore, experiments were performed to test whether Ara-C, which is not transported by P-glycoprotein, would have any effect on P-glycoprotein function in K562 leukemia cells.
Also assayed was whether drug-induced MDR1 expression was maintained after cytotoxic drug treatment. […] At different times, MDR1 expression in the surviving cells was analyzed by dye efflux and immunofluorescence labeling with UIC2 (FIG. 3C) or by cDNA-PCR (FIG. 4E).

In series [3] the test system is MDR1 expression. Put plainly: Inhibition of cytotoxic drug-induced MDR1 expression by cytoplasmic calcium antagonists and calmodulin inhibitors. The series is classed as cell-based, human. The conditions noted are these: H9. On the procedure: H9 cells were incubated as described above in the presence of the following cytotoxic drugs: Ara C (at a concentration of 25 μM), Adriamycin (2 μM), bleomycin (100 μg/ml), 2-deoxyglucose (10 mM) and nocodazole (2.5 μM). In parallel, cultures of H9 cells were incubated in the presence of each of these cytotoxic drugs and of a highly specific chelator of intracellular calcium ion, 1, 2-bis(o-aminophenoxy)-ethane-N,N,N',N'-tetraacetic acid, tetra(acetoxymethyl)-ester (BAPTA/AM) at a concentration of 5 μM for 10 hrs. under the conditions described above. The inhibitor was added 45 min. prior to the addition of each of the MDR1 inducing agents. cDNA-PCR analysis, including gel electrophoresis and autoradiography as described above, was performed for each culture after drug treatment in the presence or absence of this chelator.
H9 cells were incubated as above with 25 μM AraC in the presence or absence of 10 μM calmidazolium chloride, and cDNA-PCR analysis as described above was performed.

In series [4] the test system is MDR1 expression (P-glycoprotein). Put plainly: MDR1/P-glycoprotein expression in human cells treated with TPA, DOG, other agents (Rh123 accumulation, UIC2 staining, cDNA-PCR). The series is classed as cell-based. As to the method:
KG1 cell line was maintained in Iscove's modified Dulbecco medium with 20% fetal calf serum (FCS) and 2 mM L-glutamine, 100 units/mL penicillin and 100 μg/mL streptomycin (GIBCO Laboratories, Grand Island, N.Y.).
PBL were treated with 1 ng/mL TPA; H9 and K562 cells with 10 ng/mL TPA; KG1a and KG1 cells with 100 ng/mL TPA and the other cell lines with 10 ng/mL TPA.
Mouse IgG2a isotype control antibody was obtained from Sigma. For staining of PBL with UIC2 mAb or isotype control, 10^6 cells were stained at 4° C. with 10 μg of the antibody for 30 minutes and, after two washes, stained for 30 minutes with 10 μg of FITC-conjugated goat anti-mouse IgG2a antibody (Fisher Scientific, Fairlawn, N.J.), diluted 1:2 with PBS plus 2% FCS. Cells were then washed twice with ice-cold PBS plus 2% FCS, stained with PI and kept on ice until analysis. Essentially the same protocol was used for staining of other cell types except that 2 μg of the secondary antibody were used per 10^6 cells. In some experiments, phycoerythrine (PE)-conjugated goat anti-mouse IgG2a was used as the secondary antibody; no PI was added in such cases.
as §1, §2
A functional assay was used to detect changes in P-glycoprotein activity in human PBL treated with different agents that induce lymphoid differentiation or activation, based on flow cytometric analysis of cellular accumulation of Rh123, which is a P-glycoprotein-transported fluorescent mitochondrial dye. In this assay, cells expressing little or no P-glycoprotein stain brightly with Rh123, whereas cells with higher levels of P-glycoprotein activity appear Rh123-dull. […] Since the best-known cellular effect of TPA is the stimulation of PKC, DOG (a cell-permeable diacylglycerol and a physiological stimulant of PKC) was also tested to determine its effects on Rh123 accumulation in PBL.

Where [5] appears, read: human leukemia and solid-tumor derived cell lines, short-term exposure.
Where [6] appears, read: 50-100 μM tyrphostin, H-9 cells.

In the case of `CCCCCCCCCCCCC/C=C/[C@H](O)[C@@H](N)CO` (relative stereo) [D,L-threo-sphingosine], the “inhibition of Ara-C induced MDR1 expression” value in the series with MDR1 expression [1] (5 μM D,L-threo-sphingosine) is “little or no capacity to inhibit Ara-C induced MDR1 expression; also recorded: ineffective”. The “Inhibition of Ara-C induced MDR1 expression” value in the series with MDR1 expression [1] (5 μM, H-9, 25 μM Ara-C 10 h) is given as “-”.

For the compound `O=c1[nH]cc(F)c(=O)[nH]1` [5-fluorouracil], the MDR1 induction entry in series [2] is “MDR1 induction, both at the mRNA and at the protein levels, was observed”.

For `COc1cccc2c1C(=O)c1c(O)c3c(c(O)c1C2=O)C[C@@](O)(C(=O)CO)C[C@@H]3O[C@H]1C[C@H](N)[C@H](O)[C@H](C)O1` [Adriamycin, Doxorubicin], the “Rh123 or DiOC2(3) efflux by treated cells” value (“Rh123 or DiOC2(3) efflux” below) in series [2] (K562) is reported as 3-10%. For the same compound, the “MDR1 mRNA expression” value is given as “induce MDR1 mRNA expression” in series [2] (K562, cDNA-PCR) and “MDR1 mRNA expression was induced” in series [2] (KB-3-1 epidermoid carcinoma). Also, in series [2] (K562 subpopulation, treated 3-5 days then drug-free), the “maintenance of MDR1 expression after removal of drug” value is “maintained for a least several weeks”. For the same compound, the MDR1 induction entry in series [2] (setting [5]) is “MDR1 induction, both at the mRNA and at the protein levels, was observed”.

As to `CC(=O)OCOC(=O)CN(CC(=O)OCOC(C)=O)c1ccccc1OCCOc1ccccc1N(CC(=O)OCOC(C)=O)CC(=O)OCOC(C)=O` [BAPTA/AM, 1,2-bis(o-aminophenoxy)ethane-N,N,N',N'-tetraacetic acid, tetra(acetoxymethyl)ester], in the series on MDR1 expression [3] (5 μM BAPTA/AM), the “inhibition of MDR1 induction by 2-deoxyglucose (10 mM)” value was “completely abrogate the induction of MDR1 expression”, the “inhibition of MDR1 induction by Adriamycin (2 μM)” value is on record as “completely abrogate the induction of MDR1 expression”, the “inhibition of MDR1 induction by Ara C (25 μM)” value is reported as “completely abrogate the induction of MDR1 expression” and the “inhibition of MDR1 induction by bleomycin (100 μg/ml)” value is given as “completely abrogate the induction of MDR1 expression”. In the series with MDR1 expression [3] (5 μM BAPTA/AM), the “inhibition of MDR1 induction by different cytotoxic agents” value is on record as “completely abrogated the induction of MDR1 expression” and the “inhibition of MDR1 induction by nocodazole (2.5 μM)” value is “completely abrogate the induction of MDR1 expression”. Further, in the series with MDR1 expression [3] (BAPTA/AM), the “time prior to addition of MDR1 inducers within which inhibitory effect was detectable” value was ≤ 3 h.

For `CCCCCCCC(=O)OCC(CO)OC(=O)CCCCCCC` (stereo not drawn) [DOG, 1,2-dioctanoylglycerol], the “effect on P-glycoprotein activity (Rh123 accumulation)” value in series [4] (human PBL) is reported as “decrease Rh123 accumulation”. In series [4] (normal human PBL and leukemia/solid tumor cell lines), the MDR1 gene expression result is recorded as “increase MDR1 gene expression”.

Take `CC1CNCCN1S(=O)(=O)c1cccc2cnccc12` (stereo not drawn) [H7]: in the series on MDR1 expression [1], the “prevention of MDR1 induction by chemotherapeutic drugs” value is “prevent MDR1 induction by chemotherapeutic drugs” and the “inhibition of MDR1 induction by cytotoxic drugs” value is recorded as “capable of inhibiting MDR1 induction by cytotoxic drugs”.

In the case of `COc1c(CC(C)OC(=O)Oc2ccc(O)cc2)c2c3c(CC(C)OC(=O)c4ccccc4)c(OC)c(=O)c4c(O)cc(OC)c(c5c(OC)cc(O)c(c1=O)c52)c43` (stereo not drawn) [calphostin C], the “inhibitory capacity on Ara-C induced MDR1 expression” value with MDR1 expression [1] (0.1 μM calphostin C + white light) is “greatly reduced”. The “inhibition of Ara-C induced MDR1 expression” value in the series with MDR1 expression [1] (1 μM calphostin C + white light) is on record as “capable of inhibiting MDR1 expression; also recorded: prevent MDR1 induction by chemotherapeutic drugs”. Besides, the “inhibition of MDR1 induction by cytotoxic drugs” value in the series on MDR1 expression [1] is “capable of inhibiting MDR1 induction by cytotoxic drugs”.

Consider `N.N.[Cl][Pt][Cl]` [cisplatin], for which the “Rh123 or DiOC2(3) efflux” value in series [2] (K562) is 3-10%. The “MDR1 mRNA expression” value in series [2] (K562, cDNA-PCR) is reported as “induce MDR1 mRNA expression”. Moreover, in series [2] (setting [5]), the MDR1 induction result was “MDR1 induction, both at the mRNA and at the protein levels, was observed”.

As for `COc1cccc2c1C(=O)c1c(O)c3c(c(O)c1C2=O)C[C@@](O)(C(C)=O)C[C@@H]3O[C@H]1C[C@H](N)[C@H](O)[C@H](C)O1` [daunorubicin], in series [2], the MDR1 induction result is “MDR1 induction, both at the mRNA and at the protein levels, was observed”; the “MDR1 mRNA expression” value was “induce MDR1 mRNA expression”; the “Rh123 or DiOC2(3) efflux” value is reported as 3-10%.

On to `COc1cc([C@@H]2c3cc4c(cc3[C@@H](O[C@@H]3O[C@@H]5CO[C@@H](C)O[C@H]5[C@H](O)[C@H]3O)[C@H]3COC(=O)[C@H]23)OCO4)cc(OC)c1O` [etoposide], for which, in series [2], the MDR1 induction entry was “MDR1 induction, both at the mRNA and at the protein levels, was observed”.

On to `O=c1c(-c2ccc(O)cc2)coc2cc(O)cc(O)c12` [genistein], for which, in the series with MDR1 expression [1], the “Inhibition of Ara-C induced MDR1 expression” value is recorded as “+” and the “inhibition of Ara-C induced MDR1 expression” value is recorded as “only weakly inhibited Ara-C induced MDR1 expression”.

With `COC1C=CC=C(C)C(=O)NC2=CC(=O)C=C(C2=O)C(OC)C(C)CC(OC)C(OC)C(C)C=C(C)C1OC(N)=O` (stereo not drawn) [herbimycin A], the “inhibition of Ara-C induced MDR1 expression” value in the series with MDR1 expression [1] (0.35-3 μM herbimycin A) was “little or no capacity to inhibit Ara-C induced MDR1 expression; also recorded: ineffective at inhibiting MDR1 induction by Ara-C”.

Turning to `NC(=O)NO` [hydroxyurea], in series [2], the MDR1 induction result is “MDR1 induction, both at the mRNA and at the protein levels, was observed”; the “MDR1 mRNA expression” value is reported as “induce MDR1 mRNA expression”. Moreover, the “Rh123 or DiOC2(3) efflux” value in series [2] (K562) is listed as 3-10%.

As for `CN(Cc1cnc2nc(N)nc(N)c2n1)c1ccc(C(=O)N[C@@H](CCC(=O)O)C(=O)O)cc1` [methotrexate], in series [2], the MDR1 induction entry is “MDR1 induction, both at the mRNA and at the protein levels, was observed”; the “maintenance of MDR1 expression after removal of drug” value is “maintained for a least several weeks”.

`N#CC(C#N)=Cc1cc(O)c(O)c(O)c1` [tyrphostin A25]: the “inhibition of Ara-C induced MDR1 expression” value in the series with MDR1 expression [1] (setting [6]) is “strongly inhibit Ara-C induced MDR1 expression; also recorded: inhibit Ara-C induced MDR1 expression”.

With `N#CC(=Cc1ccc(O)c(O)c1)C(=O)NCCCc1ccccc1` [tyrphostin B46], the “inhibition of Ara-C induced MDR1 expression” value in the series with MDR1 expression [1] (setting [6]) is reported as “strongly inhibit Ara-C induced MDR1 expression; also recorded: inhibit Ara-C induced MDR1 expression”.
